Source: PubChem BioAssay (NCI)
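The compound was tested at five concentrations on cells cultured in 96-well plates, with a 48-hour exposure period. TGI: concentration producing complete growth inhibition.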

How the values were obtained:
Assay in all cases: NCI tumour cell line growth inhibition, 48 h
[1] = system: 786-0 renal
[2] = system: A549 NSCLC
[3] = system: ACHN renal
[4] = system: CAKI-1 renal
[5] = system: CCRF-CEM leukemia
[6] = system: COLO 205 colon
[7] = system: DU-145 prostate
[8] = system: EKVX NSCLC
[9] = system: HCC-2998 colon
[10] = system: HCT-116 colon
[11] = system: HCT-15 colon
[12] = system: HL-60(TB) leukemia
[13] = system: HOP-62 NSCLC
[14] = system: HOP-92 NSCLC
[15] = system: HS 578T breast
[16] = system: HT29 colon
[17] = system: IGROV1 ovarian
[18] = system: K-562 leukemia
[19] = system: KM12 colon
[20] = system: LOX IMVI melanoma
[21] = system: M14 melanoma
[22] = system: MALME-3M melanoma
[23] = system: MCF7 breast
[24] = system: MDA-MB-231 breast
[25] = system: MDA-MB-435
[26] = system: MDA-N
[27] = system: MOLT-4 leukemia
[28] = system: NCI-H226 lung
[29] = system: NCI-H522 lung
[30] = system: NCI/ADR-RES ovarian
[31] = system: OVCAR-3 ovarian
[32] = system: OVCAR-4 ovarian
[33] = system: OVCAR-5 ovarian
[34] = system: OVCAR-8 ovarian
[35] = system: PC-3 prostate
[36] = system: RPMI-8226 leukemia
[37] = system: RXF 393 renal
[38] = system: SF-268 CNS
[39] = system: SF-295 CNS
[40] = system: SF-539 CNS
[41] = system: SK-MEL-2 melanoma
[42] = system: SK-MEL-28 melanoma
[43] = system: SK-MEL-5 melanoma
[44] = system: SK-OV-3 ovarian
[45] = system: SN12C renal
[46] = system: SNB-19 CNS
[47] = system: SNB-75 CNS
[48] = system: SR leukemia
[49] = system: SW-620 colon
[50] = system: T-47D breast
[51] = system: TK-10 renal
[52] = system: U251 CNS
[53] = system: UACC-257 melanoma
[54] = system: A498 renal
[55] = system: BT-549 breast
[56] = system: NCI-H23 lung
[57] = system: NCI-H460 lung
[58] = system: UACC-62 melanoma
[59] = system: UO-31 renal

Measured: TGI

O=c1[nH]c(Nc2cccc(C(F)(F)F)c2)nc2nc[nH]c12
not listed: [54] | [55] | [56] | [57] | [58] | [59]
> 100 µM: all other assays above

O=C1/C(=C\c2cccc(Oc3ccccc3)c2)S(=O)(=O)C(c2ccccc2)N1c1ccc(Cl)cc1 (configuration not stated)
29 µM: [26] | [45]
94.3 µM: [53]
28.2 µM: [6] | [16]
26.8 µM: [10] | [59]
34.5 µM: [41]
34.7 µM: [24]
36.9 µM: [3]
27.8 µM: [20]
41.7 µM: [40]
33.1 µM: [27]
29.4 µM: [37]
57 µM: [58]
37.3 µM: [34]
25.4 µM: [25]
32.8 µM: [11]
55.9 µM: [46]
33.2 µM: [17]
79.1 µM: [5]
52.3 µM: [32]
32.7 µM: [12] | [31]
56.9 µM: [18]
84.2 µM: [4]
29.5 µM: [29]
84.5 µM: [8]
40 µM: [48]
33.6 µM: [22]
88.7 µM: [33]
29.9 µM: [50]
34.4 µM: [49]
62.9 µM: [23]
37.4 µM: [7]
27 µM: [1]
30.8 µM: [14]
54.1 µM: [30]
41.2 µM: [39]
26.9 µM: [21]
34 µM: [42]
49.9 µM: [55]
30.5 µM: [43] | [52]
not listed: [15] | [38]
> 100 µM: all other assays above

CCOC(=O)CCC(NC(=O)c1ccc(Oc2nc3ccc(C(F)(F)F)cc3nc2-c2ccccc2)cc1)C(=O)OCC (configuration not stated)
44.9 µM: [22]
42.1 µM: [38]
> 75.2 µM: [16]
9.34 µM: [15]
37.9 µM: [44]
> 79.2 µM: [56]
> 31.6 µM: [54]
64 µM: [8]
> 71.6 µM: [39]
26.9 µM: [4]
> 61.1 µM: [24]
> 57.7 µM: [34]
> 89.5 µM: [13]
> 65.8 µM: [41]
55.4 µM: [37]
32.9 µM: [1]
29.1 µM: [47]
98.4 µM: [14]
17.6 µM: [28]
> 34.3 µM: [40]
> 83 µM: [32]
not listed: [55]
> 100 µM: all other assays above

O=C1CCC[C@]2(CCC[C@@H](O)C2)N1
not listed: [14] | [25] | [27] | [28] | [36] | [42] | [48] | [49] | [52] | [54] | [56] | [58] | [59]
> 100 µM: all other assays above

CC(N)C(C)Cc1ccccc1 (configuration not stated)
not listed: [5] | [40] | [41] | [48]
> 100 µM: all other assays above

Nc1c(-c2nc3ccccc3s2)c2ccc([N+](=O)[O-])cc2c(=O)n1-c1cccc(C(=O)O)c1
64.1 µM: [50]
59.8 µM: [42]
84.2 µM: [45]
37.8 µM: [24]
44.1 µM: [48]
85.4 µM: [47]
64.7 µM: [7]
56.8 µM: [5]
80.3 µM: [4]
52.3 µM: [51]
56 µM: [52]
71.8 µM: [59]
71.5 µM: [28]
45.1 µM: [10]
52 µM: [46]
72.9 µM: [14]
61.9 µM: [53]
75.4 µM: [41]
68.6 µM: [34]
64.3 µM: [55]
58.6 µM: [58]
92.8 µM: [56]
37.7 µM: [12]
not listed: [8] | [13] | [17] | [18] | [21] | [22] | [23] | [27] | [31] | [33] | [36] | [37] | [39] | [40] | [44] | [54]
> 100 µM: all other assays above

CON(C)C(C#N)=C(C#N)C#N
not listed: [1] | [14] | [53] | [55]
> 10 µM: all other assays above

CC1(C)N=C(C(N)=O)c2ncn(-c3ccccc3)c2N1
not listed: [14] | [27] | [55] | [59]
> 100 µM: all other assays above
